Experimental data: PubChem BioAssay (NCI)
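A five-concentration, 48-hour dose response in 96-well plates underlies each endpoint, interpolated linearly between surrounding concentrations. GI50 = concentration required for 50% inhibition of growth. TGI denotes the concentration required for complete inhibition of growth.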

How the values were obtained:
Assay in all cases: NCI anticancer screen, dose series, 48 h
HOP-92 NSCLC = system: HOP-92 NSCLC
A549 NSCLC = system: A549 NSCLC
RPMI-8226 leukemia = system: RPMI-8226 leukemia
HCT-116 colon = system: HCT-116 colon
RXF 393 renal = system: RXF 393 renal
MALME-3M melanoma = system: MALME-3M melanoma
SK-OV-3 ovarian = system: SK-OV-3 ovarian
U251 CNS = system: U251 CNS
MDA-MB-435 = system: MDA-MB-435
SK-MEL-2 melanoma = system: SK-MEL-2 melanoma

**Q.** What does the source list for `CC(C)(C)c1cc(C(C)(C)C)c2sc(=O)oc2c1O`?
**A.** TGI (HOP-92 NSCLC): 30.8 µM; TGI (A549 NSCLC): 27.6 µM; TGI (RPMI-8226 leukemia): > 100 µM; TGI (HCT-116 colon): 29.8 µM; TGI (RXF 393 renal): 26.3 µM; TGI (MALME-3M melanoma): 30.2 µM; TGI (SK-OV-3 ovarian): 35.3 µM; TGI (U251 CNS): 27.8 µM; TGI (MDA-MB-435): 25.6 µM; TGI (SK-MEL-2 melanoma): 29.1 µM

**Q.** Which TGI (HOP-92 NSCLC) does the source give for `CC(C)(C)C(=O)C(N)C(=O)C(C)(C)C` here?
**A.** > 100 µM

**Q.** What about the TGI (A549 NSCLC) of the same compound?
**A.** > 100 µM

**Q.** And the TGI (RPMI-8226 leukemia)?
**A.** > 100 µM

**Q.** What about the TGI (HCT-116 colon) of the same compound?
**A.** > 100 µM

**Q.** And the TGI (RXF 393 renal)?
**A.** > 100 µM

**Q.** And the TGI (MALME-3M melanoma)?
**A.** > 100 µM

**Q.** What about the TGI (SK-OV-3 ovarian) of the same compound?
**A.** > 100 µM

**Q.** And the TGI (U251 CNS)?
**A.** > 100 µM

**Q.** And the TGI (MDA-MB-435)?
**A.** > 100 µM

**Q.** And the TGI (SK-MEL-2 melanoma)?
**A.** > 100 µM

**Q.** How did the TGI (HOP-92 NSCLC) turn out when `CCOc1ccc(Nc2nc(N)nc(N)c2N=O)cc1` was run?
**A.** 62.8 µM

**Q.** And the TGI (A549 NSCLC)?
**A.** > 100 µM

**Q.** And the TGI (RPMI-8226 leukemia)?
**A.** > 100 µM

**Q.** What about the TGI (HCT-116 colon) of the same compound?
**A.** > 100 µM

**Q.** What about the TGI (RXF 393 renal) of the same compound?
**A.** > 100 µM

**Q.** And the TGI (MALME-3M melanoma)?
**A.** > 100 µM

**Q.** And the TGI (SK-OV-3 ovarian)?
**A.** > 100 µM

**Q.** What about the TGI (U251 CNS) of the same compound?
**A.** > 100 µM

**Q.** What about the TGI (MDA-MB-435) of the same compound?
**A.** > 100 µM

**Q.** What about the TGI (SK-MEL-2 melanoma) of the same compound?
**A.** > 100 µM

**Q.** How did the TGI (HOP-92 NSCLC) turn out when `CC1CC(C)(C)CC(OCCN2CCCCC2)(c2ccccc2)C1` (stereo unspecified) was run?
**A.** 21.7 µM

**Q.** And the TGI (A549 NSCLC)?
**A.** 24.6 µM

**Q.** And the TGI (RPMI-8226 leukemia)?
**A.** 20.3 µM

**Q.** And the TGI (HCT-116 colon)?
**A.** 18.9 µM

**Q.** What about the TGI (RXF 393 renal) of the same compound?
**A.** 23.8 µM

**Q.** And the TGI (MALME-3M melanoma)?
**A.** 23.4 µM

**Q.** What about the TGI (SK-OV-3 ovarian) of the same compound?
**A.** 28.3 µM

**Q.** And the TGI (U251 CNS)?
**A.** 25.5 µM

**Q.** And the TGI (MDA-MB-435)?
**A.** 24.7 µM

**Q.** What about the TGI (SK-MEL-2 melanoma) of the same compound?
**A.** 33.4 µM

**Q.** Which TGI (HOP-92 NSCLC) does the source give for `O=C(c1ccccc1)C1C(c2ccccc2[N+](=O)[O-])N1C1CCCCC1` (stereo unspecified) here?
**A.** 16.2 µM

**Q.** What about the TGI (A549 NSCLC) of the same compound?
**A.** 44.2 µM

**Q.** What about the TGI (RPMI-8226 leukemia) of the same compound?
**A.** 4.68 µM

**Q.** What about the TGI (HCT-116 colon) of the same compound?
**A.** 8.6 µM

**Q.** And the TGI (RXF 393 renal)?
**A.** 17 µM

**Q.** What about the TGI (MALME-3M melanoma) of the same compound?
**A.** 29.4 µM

**Q.** And the TGI (SK-OV-3 ovarian)?
**A.** > 60.9 µM

**Q.** And the TGI (U251 CNS)?
**A.** 18.5 µM

**Q.** And the TGI (MDA-MB-435)?
**A.** 10.8 µM

**Q.** What about the TGI (SK-MEL-2 melanoma) of the same compound?
**A.** 18.6 µM

**Q.** What does the source list for `CCOC(=O)c1c(-c2ccc(Cl)cc2)c(C#N)c(=S)n(C2OC(COC(C)=O)C(OC(C)=O)C(OC(C)=O)C2OC(C)=O)c1C` (stereo unspecified)?
**A.** TGI (HOP-92 NSCLC): > 20.1 µM; TGI (A549 NSCLC): > 100 µM; GI50 (RPMI-8226 leukemia): 36.1 µM; TGI (RPMI-8226 leukemia): > 100 µM; TGI (HCT-116 colon): > 100 µM; TGI (RXF 393 renal): > 100 µM; TGI (MALME-3M melanoma): > 100 µM; TGI (SK-OV-3 ovarian): > 100 µM; TGI (U251 CNS): > 100 µM; TGI (MDA-MB-435): > 100 µM; TGI (SK-MEL-2 melanoma): > 66 µM

**Q.** With `CCOC(=O)CCC(C(=O)OCC)n1nnc2cc(Nc3c(C)[n+]([O-])c4cc(Cl)ccc4[n+]3[O-])ccc21` (stereo unspecified) as the compound, how does the TGI (HOP-92 NSCLC) read?
**A.** > 100 µM

**Q.** And the TGI (A549 NSCLC)?
**A.** > 100 µM

**Q.** And the TGI (RPMI-8226 leukemia)?
**A.** > 100 µM

**Q.** What about the TGI (HCT-116 colon) of the same compound?
**A.** > 100 µM

**Q.** What about the TGI (RXF 393 renal) of the same compound?
**A.** > 100 µM

**Q.** And the TGI (MALME-3M melanoma)?
**A.** > 100 µM

**Q.** What about the TGI (SK-OV-3 ovarian) of the same compound?
**A.** > 100 µM

**Q.** What about the TGI (U251 CNS) of the same compound?
**A.** > 100 µM

**Q.** And the TGI (MDA-MB-435)?
**A.** > 100 µM

**Q.** And the TGI (SK-MEL-2 melanoma)?
**A.** > 100 µM
